Test results taken from patent publication US6277859A, “Morphinan derivative and its pharmaceutical applications” (priority 1992, dated 2001).
Structures can show the parent of a compound that is named as a salt.

Experiments:
Wistar rats = experiment: Evaluation of diuretic action; assay type: in vivo, rat (male Wistar); settings: sc, rat, s.c., urine output for 5 h after 20 ml/kg saline oral; for ED500: read-out: ED500, diuretic action (dose giving urine output of 500, non-dosed group = 100); for ED200: read-out: ED200, diuretic action (dose giving urine output of 200, non-dosed group = 100)
Protocol: Evaluation of Diuretic Action
7-8 week old male Wistar rats were used in this test after prohibiting from drinking water for 1 hour before testing. After discharging any urine accumulated in the bladder by gently stimulating the lower abdomens of the animals, the drug was administered subcutaneously. After 30 minutes, the animals were then forcibly given 20 ml/kg of physiological saline orally. The animals were then placed in metabolic cages immediately after administration of the drug (2 animals/cage) and urine output for 5 hours after loading with physiological saline was measured. Drug efficacy was expressed in the form of those doses resulting in urine outputs of 200 and 500, respectively, when the urine output of a non-dosed group was taken to be 100. Those doses were expressed as the ED200 and ED500 values, respectively.

μ receptor = target: T1, μ receptor (Mus musculus, UniProt P42866); experiment: Ke with naloxone in isolated mouse vas deference preparation; assay type: cell-based, mouse (male ddy)
T1 construct: The isolated vas deference was filled with Krebes-Henseleit solution; from tissue; host or cells: isolated vas deferens of male ddy mouse
Protocol: (§1) A male ddy mouse was used in this test. The isolated vas deference was filled with Krebes-Henseleit solution (NaCl 118 mM; KCl 4.7 mM; CaCl2 2.5 mM; KH2 PO4 1.1 mM; NaHCO3 25 mM; and glucose 10 mM) warmed to 37° C. and suspended in a Magnus tube ventilated with 5% carbon dioxide and 95% oxygen. Electrical stimulus was performed at 0.1 Hz for 5.0 ms by means of ring-shaped platinum electrodes located above and below. Tissue contractions were recorded on a polygraph using an isometric transducer.
(§2) Then after adequately washing with nutrient solution and the contraction reaction stabilized, naloxone, a μ […], NTI, a δ […], or norBNI, a κ […], were added and the test compound was again cumulatively added after roughly 20 minutes. The Ke value was calculated using the following calculation formula from the difference in the efficacies of both agonists.
(§3) Ke=[Conc. of added agonist]/(IC50 ratio-1)
(§4) IC50 ratio IC50 in the presence of agonist/IC50 in the absence of agonist

δ receptor = target: T2, δ receptor (Mus musculus, UniProt P32300); experiment: Ke with NTI in isolated mouse vas deference preparation; assay type: cell-based, mouse (male ddy); settings: for Ke NTI: NTI (δ)
T2 construct: The isolated vas deference was filled with Krebes-Henseleit solution; from tissue; host or cells: isolated vas deferens of male ddy mouse
Protocol: as §1, §2, §3, §4

κ receptor = target: T3, κ receptor (Mus musculus, UniProt P33534); experiment: Ke with norBNI in isolated mouse vas deference preparation; assay type: cell-based, mouse (male ddy); settings: for Ke norBNI: norBNI (κ)
T3 construct: The isolated vas deference was filled with Krebes-Henseleit solution; from tissue; host or cells: isolated vas deferens of male ddy mouse
Protocol: as §1, §2, §3, §4

[1] = test system: isolated mouse vas deference; experiment: Opioid activity test using the isolated mouse vas deference preparation (electrically stimulated contractions); assay type: cell-based, mouse (male ddy); settings: suppression of electrically stimulated contractions
Protocol: Opioid Activity Test Using the Isolated Mouse Vas Deference Preparation
as §1, §2

T2 sequence (P32300 whole entry): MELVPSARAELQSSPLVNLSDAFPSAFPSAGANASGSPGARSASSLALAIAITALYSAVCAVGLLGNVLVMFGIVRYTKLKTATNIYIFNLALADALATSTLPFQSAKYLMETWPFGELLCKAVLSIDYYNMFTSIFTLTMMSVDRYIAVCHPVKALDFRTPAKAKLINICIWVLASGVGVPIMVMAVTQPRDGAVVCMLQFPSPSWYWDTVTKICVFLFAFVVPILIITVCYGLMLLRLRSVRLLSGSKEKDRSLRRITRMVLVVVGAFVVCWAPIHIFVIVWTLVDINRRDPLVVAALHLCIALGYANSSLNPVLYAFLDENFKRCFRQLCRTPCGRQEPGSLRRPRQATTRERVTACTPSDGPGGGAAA
T1 sequence (P42866 whole entry): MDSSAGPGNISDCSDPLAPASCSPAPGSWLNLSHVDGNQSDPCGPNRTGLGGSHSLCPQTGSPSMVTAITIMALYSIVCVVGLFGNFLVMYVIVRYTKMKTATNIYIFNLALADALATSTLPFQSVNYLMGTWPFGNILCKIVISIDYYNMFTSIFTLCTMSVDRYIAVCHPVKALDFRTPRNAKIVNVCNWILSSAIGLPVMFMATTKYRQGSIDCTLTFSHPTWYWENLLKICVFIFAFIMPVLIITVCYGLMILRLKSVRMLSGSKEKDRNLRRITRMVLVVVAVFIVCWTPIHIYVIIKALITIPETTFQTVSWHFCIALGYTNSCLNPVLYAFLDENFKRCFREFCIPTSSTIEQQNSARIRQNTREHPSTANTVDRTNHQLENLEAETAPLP
T3 sequence (P33534 whole entry): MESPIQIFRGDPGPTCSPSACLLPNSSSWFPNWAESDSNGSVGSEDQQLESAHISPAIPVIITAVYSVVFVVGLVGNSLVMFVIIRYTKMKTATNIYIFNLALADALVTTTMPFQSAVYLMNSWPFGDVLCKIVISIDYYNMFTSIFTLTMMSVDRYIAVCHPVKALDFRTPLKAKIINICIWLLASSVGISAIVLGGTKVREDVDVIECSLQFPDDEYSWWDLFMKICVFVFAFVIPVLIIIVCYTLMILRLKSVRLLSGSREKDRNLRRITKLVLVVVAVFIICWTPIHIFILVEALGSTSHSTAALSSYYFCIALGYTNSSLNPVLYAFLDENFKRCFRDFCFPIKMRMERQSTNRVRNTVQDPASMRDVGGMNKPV

| Structure (SMILES) | ED500 (Wistar rats) | ED200 (Wistar rats) | Ke Naloxone (μ receptor) | selective agonist for δ receptors (in words) (δ receptor) | Ke NTI (δ receptor) | Ke norBNI (κ receptor) | selective agonist for κ receptors (in words) (κ receptor) | IC50 [1] |
| --- | --- | --- | --- | --- | --- | --- | --- | --- |
| CN(C(=O)/C=C/c1ccccc1)[C@H]1CC[C@@]2(O)[C@H]3Cc4ccc(O)c5c4[C@@]2(CCN3CC2CC2)[C@H]1O5 [Compound 24, 17-cyclopropylmethyl-3,14β-dihydroxy-4,5α-epoxy-6α-(N-methylcinnamamido)morphinan.hydrochloride] | 6.3 µg/kg | 0.69 µg/kg | 16.5 nM | selective agonists for δ receptors | 0.426 nM | 4.90 nM |  |  |
| CN(C(=O)OCc1ccc([N+](=O)[O-])cc1)[C@H]1CC[C@@]2(O)[C@H]3Cc4ccc(O)c5c4[C@@]2(CCN3CC2CC2)[C@H]1O5 [Compound 43, 17-cyclopropylmethyl-3,14β-dihydroxy-4,5α-epoxy-6α-(N-methyl-4-nitrobenzyloxycarbamido)morphinan.hydrochloride] | 4.4 µg/kg | 0.54 µg/kg | 409 nM |  | 22.5 nM | 5.31 nM | selective agonists for κ receptors |  |
| CN(C(=O)COc1ccccc1)[C@H]1CC[C@@]2(O)[C@H]3Cc4ccc(O)c5c4[C@@]2(CCN3CC2CC2)[C@H]1O5 [Compound 38, 17-cyclopropylmethyl-3,14β-dihydroxy-4,5α-epoxy-6α-(N-methylphenoxyacetamido) morphinan.hydrochloride] |  | 3.8 µg/kg | 411 nM |  | 16.6 nM | 4.65 nM | selective agonists for κ receptors |  |
| CN(C(=O)/C=C/c1ccoc1)[C@@H]1CC[C@@]2(O)[C@H]3Cc4ccc(O)c5c4[C@@]2(CCN3CC2CC2)[C@H]1O5 [Compound 61, 17-cyclopropylmethyl-3,14β-dihydroxy-4,5α-epoxy-6β-[N-methyl-trans-3-(3-furyl)acrylamido]morphinan.tartrate] |  | 3.2 µg/kg |  |  |  | 0.164 nM |  | 0.42 nM |
| CN(C(=O)CCc1ccccc1)[C@H]1CC[C@@]2(O)[C@H]3Cc4ccc(O)c5c4[C@@]2(CCN3CC2CC2)[C@H]1O5 [Compound 22, 17-Cyclopropylmethyl-4,5α-epoxy-3,14β-dihydroxy-6α-(N-methyl-3-phenylpropionamido)morphinan.tartrate] | 17 µg/kg | 0.95 µg/kg | 800 nM |  | 545 nM | 5.53 nM | selective agonists for κ receptors |  |
| CN(C(=O)C#Cc1ccccc1)[C@H]1CC[C@@]2(O)[C@H]3Cc4ccc(O)c5c4[C@@]2(CCN3CC2CC2)[C@H]1O5 [Compound 84, 17-cyclopropylmethyl-3,14β-dihydroxy-4,5α-epoxy-6α-(N-methyl-3-phenylpropiolamido)morphinan.hydrochloride] |  | 2.8 µg/kg | 35.4 nM | selective agonists for δ receptors | 0.309 nM | 5.69 nM |  |  |
| CN(C(=O)/C=C/c1cccc(C(F)(F)F)c1)[C@@H]1CC[C@@]2(O)[C@H]3Cc4ccc(O)c5c4[C@@]2(CCN3CC2CC2)[C@H]1O5 [Compound 60, 17-cyclopropylmethyl-3,14β-dihydroxy-4,5α-epoxy-60-(N-methyl-3-trifluoromethylcinnaiamido)morphinan.tartrate] |  |  |  |  | 291 nM | 3.20 nM | selective agonists for κ receptors | 0.468 nM |
| CCC/C=C/C(=O)N(C)[C@@H]1CC[C@@]2(O)[C@H]3Cc4ccc(O)c5c4[C@@]2(CCN3CC2CC2)[C@H]1O5 [Compound 100, 17-cyclopropylmethyl-3,14β-dihydroxy-4,5α-epoxy-6β-(N-methyl-trans-2-hexenamido)morphinan.tartrate] |  |  | 1797 nM |  |  | 0.0717 nM | selective agonists for κ receptors | 0.647 nM |
| CN(C(=O)/C=C/c1ccoc1)[C@H]1CC[C@@]2(O)[C@H]3Cc4ccc(O)c5c4[C@@]2(CCN3CC2CC2)[C@H]1O5 [Compound 89, 17-cyclopropylmethyl-3,14β-dihydroxy-4,5α-epoxy-6α-[N-methyl-trans-3-(3-furyl)acrylamido]morphinane.tartrate] |  | 1.2 µg/kg | 18.3 nM |  | 15.6 nM | 0.85 nM | selective agonists for κ receptors |  |
| CN(C(=O)/C=C/c1cccc([N+](=O)[O-])c1)[C@H]1CC[C@@]2(O)[C@H]3Cc4ccc(O)c5c4[C@@]2(CCN3CC2CC2)[C@H]1O5 [Compound 97, 17-cyclopropylmethyl-3,14β-dihydroxy-4,5α-epoxy-6α-(N-methyl-3-nitrocinnamamido)morphinanphosphate] |  | 4.5 µg/kg | 163 nM | selective agonists for δ receptors | 2.92 nM | 13.9 nM |  |  |
| CN(C(=O)/C=C/c1ccc(C(F)(F)F)cc1)[C@@H]1CC[C@@]2(O)[C@H]3Cc4ccc(O)c5c4[C@@]2(CCN3CC2CC2)[C@H]1O5 [Compound 73, 17-cyclopropylmethyl-3,14,β-dihydroxy-4,5α-epoxy-6β-(N-methyl-4-trifluoromethylcinnamamido) morphinan.tartrate] |  |  | 524 nM |  | 78 nM | 0.272 nM | selective agonists for κ receptors |  |
| CN(C(=O)C#Cc1ccccc1)[C@@H]1CC[C@@]2(O)[C@H]3Cc4ccc(O)c5c4[C@@]2(CCN3CC2CC2)[C@H]1O5 [Compound 101, 17-cyclopropylmethyl-3,14β-dihydroxy-4,5α-epoxy-6β-(N-methyl-3-phenylpropiolamido)morphinan.hydrochloride] |  | 8.9 µg/kg | 25.4 nM |  | 31.6 nM | 0.0425 nM | selective agonists for κ receptors |  |
| CN(C(=O)C#Cc1ccc(C(F)(F)F)cc1)[C@H]1CC[C@@]2(O)[C@H]3Cc4ccc(O)c5c4[C@@]2(CCN3CC2CC2)[C@H]1O5 [Compound 126, 17-Cyclopropylmethyl-3,14β-dihydroxy-4,5α-epoxy-6α-[N-methyl-3-(4-trifluoromethylphenyl)propiolamido] morphinan.0.5 tartrate] |  |  | 40.2 nM | selective agonists for δ receptors | 0.0065 nM | 1.20 nM |  |  |
| C=CCN1CC[C@]23c4c5ccc(O)c4O[C@H]2[C@@H](N(C)C(=O)Cc2ccc(Cl)c(Cl)c2)CC[C@@]3(O)[C@H]1C5 [Compound 122, 17-allyl-3,14β-dihydroxy-4,5α-epoxy-6α-(N-methyl-3,4-dichlorophenylacetamido)morphinan.hydrochloride] |  |  | 59.5 nM |  | 42.7 nM | 0.358 nM | selective agonists for κ receptors |  |
| CN(C(=O)/C=C/c1ccco1)[C@@H]1CC[C@@]2(O)[C@H]3Cc4ccc(O)c5c4[C@@]2(CCN3CC2CC2)[C@H]1O5 [Compound 70, 17-cyclopropylmethyl-3,14β-dihydroxy-4,5α-epoxy-62. [N-methyl-trans-3-(2-furyl)acrylamido] morphinan.hydrochloride] |  |  |  |  |  | 0.198 nM | selective agonists for κ receptors | 0.545 nM |
| CN(C(=O)/C=C/c1cccc(F)c1)[C@@H]1CC[C@@]2(O)[C@H]3Cc4ccc(O)c5c4[C@@]2(CCN3CC2CC2)[C@H]1O5 [Compound 102, 17-cyclopropylmethyl-3,14β-dihydroxy-4,5α-epoxy-6β-(N-methyl-3-fluorocinnamamido)morphinan.tartrate] |  | 1.4 µg/kg |  |  | 276 nM | 2.37 nM | selective agonists for κ receptors | 1.6 nM |
| CCCCCC(=O)N(C)[C@H]1CC[C@@]2(O)[C@H]3Cc4ccc(O)c5c4[C@@]2(CCN3CC2CC2)[C@H]1O5 [Compound 39, 17-cyclopropylmethyl-3,14β-dihydroxy-4,5α-epoxy-6α-(N-methylhexanamido)morphinan.tartrate] |  | 4.1 µg/kg | 89.9 nM |  | 99.3 nM | 1.01 nM | selective agonists for κ receptors |  |
